Measurements: patent US20040110681A1, “Method to identify targeting molecules” (priority 2002, published 2004)
Values joined by “and” are separate entries in the source; they are usually repeats but may differ in a detail not shown here. Equal values may be shown once.

Tests used:
brain [1] = test: Co-injection of A3 and control T7-LacZ phage, plaque assay of tissues and blood; format: in vivo, BALB/c mice; details: 10^9 pfu of each phage, tail vein, 1 hour circulation
Description: Plaque assays were used to determine the relative amounts of phage contained in blood and brain. For the blood assays, 300 μl of blood was drawn into 300 μl of 100 mM sodium citrate before perfusion. Plasma was recovered and saved for plaque assay. The phage content was assessed by mixing aliquots of the tissue homogenate or plasma with the bacterial BLT-5615 host, then plating on agar plates.
40 μl of 40 mg/ml of X-gal in DMF was added into 3 ml of top agar in each plate.
A mixture of the two phage (10^9 pfu of each phage) was injected into the tail veins of non-anesthetized BALB/c mice. […] Another measure of selective retention is to compare target organ to blood levels of the test phage.

brain [2] = test: Head to head comparison of CAGAXCY variants (L5, N5, M5) vs control lacZ phage; format: in vivo; details: 6 hours after administration vs 2 hours
[3] = tested on: brain, lung, liver, kidney, blood and spleen; test: Pharmacokinetic (PK) analysis of T7-CAGALCY and T7-lacZ phage, plaque assay; format: in vivo, FVB female mice
Description: A3-T7 was amplified in the host strain BLT-5615 in the presence of 1 mM IPTG and purified. T7-lacZ phage were amplified by large scale plating on LB plates. The plates were incubated at 25° C. overnight, and phage were eluted with phage extraction buffer (20 mM Tris-HCl, pH 8.0, 100 mM NaCl, 6 mM MgSO4) overnight at 4° C. with gentle rocking. The extracted phage were pooled and purified. In the PK study, in paragraph A below, three mice were used per time point, co-injected with 1×10^10 pfu of each phage. Time points were 2 min, 10 min, 30 min, 1 hr, 2 hr, 4 hr, 6 hr, 12 hr, and 24 hr.
Mice were anesthetized with Avertin 2-4 minutes before the scheduled harvest time (the mice assigned to the 2 minute time-point were anesthetized prior to administration of the phage). The brain, lung, liver, kidney, blood and spleen were harvested at 2 min, 10 min, 30 min, 1 hr, 2 hr, 4 hr, 6 hr, 12 hr, and 24 hr. The phage contents in each organ were determined by plaque assay in the presence of X-gal in top agar.

brain [4] = test: CX4CY phage library, one round of in vivo panning to brain; set-up: species or system BALB/c mice; details: 4 hrs post phage injection
Description: A CX4CY library was prepared and tested. 1×10^10 pfu of the library phage were injected into 6 BALB/c mice (3 mice/time point). At 30 min and 4 hr post-injection, brain was harvested and processed as described above. Similar numbers of plaques were picked individually, and the insert sequence amplified by PCR and sequenced. Alignment analysis of the sequence data was performed with a version of Clustral/W.

brain tissue = test: Individual peptide variants of A3 on phage, brain selectivity index vs T7-lacZ; format: in vivo, FVB or BALB/c mice; details: 2 hours circulation
Description: In this example, various individual peptide variants of A3 were tested in vivo for their ability to target brain or other tissues. […] The phage contents of each organ were determined by plaque assay in the presence of X-gal (500 μg/mL) in top agar.
Thus, selectively indices of less than 10 are considered low, those between 10 and […] are considered moderate and those over 100 are considered high.

[5] = tested on: brain, lung, liver, kidney, colon; test: Effect of dose on the brain-targeting properties of T7-CAGALCY (SI, SPI); format: in vivo, FVB female mice; details: for Organ Specificity Index (SPI), ratio of SI brain to colon / Organ Specificity Index (SPI), ratio of SI brain to kidney / Organ Specificity Index (SPI), ratio of SI brain to liver / Organ Specificity Index (SPI), ratio of SI brain to lung / Selectivity index (SI), brain / Selectivity index (SI), colon / Selectivity index (SI), kidney / Selectivity index (SI), liver / Selectivity index (SI), lung: 4 hours; for Organ Specificity Index (SPI), ratio of SI brain to colon / Organ Specificity Index (SPI), ratio of SI brain to kidney / Organ Specificity Index (SPI), ratio of SI brain to liver / Organ Specificity Index (SPI), ratio of SI brain to lung: mean; for Selectivity index (SI), brain / Selectivity index (SI), colon / Selectivity index (SI), kidney / Selectivity index (SI), liver / Selectivity index (SI), lung: mean ± SEM
Description: In the dose response study, in paragraph B below, three mice were used per dose, co-injected with 1×10^7, 1×10^8, 1×10^9, 1×10^10, 1×10^11 pfu of each phage.
For each dose, three mice were injected. Four hours after phage administration, phage were recovered from the brain, lung, liver, kidney, colon, and blood.
This was measured as A3-T7 phage yield per gram tissue from various organs normalized by the yield/g tissue of the control phage.

brain [6] = test: kSAR: co-injection of all 20 CAGAXCY (position 5) phage variants, sequence frequency in brain; format: in vivo, BALB/c mice
Description: To determine the optimum amino acid for position 5, all 20 variants at this position were injected. For co-injection of all 20 variants of CAGAXCY phage, individual phage were grown up and titered. Equivalent amounts of each phage type were added to PBS and 200 μL dose of the mixture was injected into 3 BALB/c mice per group (two time points of 30 minutes and 4 hours were studied, total of 6 mice). At 30 min and 4 hrs post injection, the mice were anesthetized, perfused and blood and brain were harvested. Aliquots of both the initial phage pool used for dosing as well as brain tissue samples were plated out, and approximately 100 individual plaques from each set were amplified by PCR using the T7 Super up primer method and sequenced using a CEQ 2000XL sequencer (Beckman Coulter, Calif.).
A total of 107 individual phage from the initial mixture used for dosing were sequenced to verify the relative abundance of the individual phage within the administered dose and these were compared with the relative frequency of the different phage recovered from brain after 30 minutes or 4 hours of circulation. There was a marked and rapid shift in frequency even by 30 minutes, where there was a marked enrichment of phage expressing N at the X5 position, (from 7% in the initial pool to 49%), M (from 5% to 24%) or L (2.8% to 12%) at 30 minutes.

In the case of CAGALCY [T7-A3], the “brain to blood ratio after normalization to control phage” value (brain [1]) is reported as over 100 fold, the “change of brain SI values” (brain [2]) is reported as “increase further” and the “ratio of yield/g brain and yield/mL blood between T7-A3 and T7-lacZ phage” value ([3]; 2 hr) is reported as 250. For the same substance, the “Selectivity index (SI), brain” value ([3]; 2 hr, 1×10^10 pfu) was 51, the “Selectivity index (SI), lung” value ([3]; 2 hr, 1×10^10 pfu) was 16.0 and the “selectivity index (SI), spleen” value ([3]; 2 hr, 1×10^10 pfu) was 1.98. For the same substance, the “relative specificity for brain (SI brain compared to lung)” value ([3]; 4 hour time point) was 6 fold, the “ratio of yield/g brain and yield/mL blood between T7-A3 and T7-lacZ phage” value ([3]; 4 hr) was 1200 and the “Selectivity index (SI), brain” value ([3]; 4 hr, 1×10^10 pfu) was 280 and 288. For the same substance, the “Selectivity index (SI), liver” value ([3]; 4 hr, 1×10^10 pfu) was 4.62, the “Selectivity index (SI), lung” value ([3]; 4 hr, 1×10^10 pfu) was 54.8 and 47 and the “selectivity index, brain” value ([3]; difference of half-lives in blood taken into account) was “over 100”. For the same substance, the “enrichment among 83 sequences sampled from the brain” value (brain [4]) was “no enriched phage”, the “Brain Targeting Activity” value (brain tissue; 0.5-1×10^10 pfu co-injected with T7-lacZ) was “Yes” and the “Selectivity index (BALB/C mice)” value (brain tissue; brain tissue, BALB/C mice) was 1000. For the same substance, the “Selectivity index (FVB female)” value (brain tissue; brain tissue, FVB female mice) was over 200, the “Organ Specificity Index (SPI), ratio of SI brain to colon” value ([5]; 1 × 10^7 pfu) was 4.57 and the “Organ Specificity Index (SPI), ratio of SI brain to kidney” value ([5]; 1 × 10^7 pfu) was 1.92. For the same substance, the “Organ Specificity Index (SPI), ratio of SI brain to liver” value ([5]; 1 × 10^7 pfu) was 2.34, the “Organ Specificity Index (SPI), ratio of SI brain to lung” value ([5]; 1 × 10^7 pfu) was 4.23 and the “Selectivity index (SI), brain” value ([5]; 1 × 10^7 pfu) was 13.2. For the same substance, the “Selectivity index (SI), colon” value ([5]; 1 × 10^7 pfu) was 1.8 ± 1.1, the “Selectivity index (SI), kidney” value ([5]; 1 × 10^7 pfu) was 5.0 ± 3.1 and the “Selectivity index (SI), liver” value ([5]; 1 × 10^7 pfu) was 6.3 ± 5.4. For the same substance, the “Selectivity index (SI), lung” value ([5]; 1 × 10^7 pfu) was 1.9 ± 0.8, the “Organ Specificity Index (SPI), ratio of SI brain to colon” value ([5]; 1 × 10^8 pfu) was 2.82 and the “Organ Specificity Index (SPI), ratio of SI brain to kidney” value ([5]; 1 × 10^8 pfu) was 2.08. The “Organ Specificity Index (SPI), ratio of SI brain to liver” value ([5]; 1 × 10^8 pfu) was 3.27, the “Organ Specificity Index (SPI), ratio of SI brain to lung” value ([5]; 1 × 10^8 pfu) was 0.65 and the “Selectivity index (SI), brain” value ([5]; 1 × 10^8 pfu) was 10.5 and 10. For the same substance, the “Selectivity index (SI), colon” value ([5]; 1 × 10^8 pfu) was 4.3 ± 1.8, the “Selectivity index (SI), kidney” value ([5]; 1 × 10^8 pfu) was 5.4 ± 1.3 and the “Selectivity index (SI), liver” value ([5]; 1 × 10^8 pfu) was 4.2 ± 1.9. For the same substance, the “Selectivity index (SI), lung” value ([5]; 1 × 10^8 pfu) was 14.3 ± 6.8, the “Organ Specificity Index (SPI), ratio of SI brain to colon” value ([5]; 1 × 10^9 pfu) was 8.87 and the “Organ Specificity Index (SPI), ratio of SI brain to kidney” value ([5]; 1 × 10^9 pfu) was 3.27. For the same substance, the “Organ Specificity Index (SPI), ratio of SI brain to liver” value ([5]; 1 × 10^9 pfu) was 26, the “Organ Specificity Index (SPI), ratio of SI brain to lung” value ([5]; 1 × 10^9 pfu) was 3.23 and the “Selectivity index (SI), brain” value ([5]; 1 × 10^9 pfu) was 121. For the same substance, the “Selectivity index (SI), colon” value ([5]; 1 × 10^9 pfu) was 18.3 ± 6.8, the “Selectivity index (SI), kidney” value ([5]; 1 × 10^9 pfu) was 47.3 ± 18.5 and the “Selectivity index (SI), liver” value ([5]; 1 × 10^9 pfu) was 8.2 ± 3.1. The “Selectivity index (SI), lung” value ([5]; 1 × 10^9 pfu) was 47.3 ± 12.5, the “Organ Specificity Index (SPI), ratio of SI brain to lung” value ([5]; 1 × 10^10 pfu) was 4.03 and the “Selectivity index (SI), brain” value ([5]; 1 × 10^10 pfu) was 150. For the same substance, the “Selectivity index (SI), colon” value ([5]; 1 × 10^10 pfu) was 7.9 ± 1.2, the “Selectivity index (SI), kidney” value ([5]; 1 × 10^10 pfu) was 20.7 ± 6.4 and the “Selectivity index (SI), liver” value ([5]; 1 × 10^10 pfu) was 8.9 ± 5.1. For the same substance, the “Selectivity index (SI), lung” value ([5]; 1 × 10^10 pfu) was 40.7 ± 9.2, the “Organ Specificity Index (SPI), ratio of SI brain to lung” value ([5]; 1 × 10^11 pfu) was 3.3 and the “Selectivity index (SI), brain” value ([5]; 1 × 10^11 pfu) was 118 ± 47.3. The “Selectivity index (SI), colon” value ([5]; 1 × 10^11 pfu) was 5.3 ± 1.6, the “Selectivity index (SI), kidney” value ([5]; 1 × 10^11 pfu) was 10.3 ± 1.7 and the “Selectivity index (SI), liver” value ([5]; 1 × 10^11 pfu) was 4.2 ± 0.4. The “Selectivity index (SI), lung” value ([5]; 1 × 10^11 pfu) was 35.3 ± 11.0, the “SPI values for lung, liver, kidney or colon compared to the other organs” value ([5]; all doses tested) was “lower than 10” and the “frequency of phage variant recovered from brain” value (brain [6]; 30 minutes after injection of 20-variant mixture) was 12%. For the same substance, the “frequency of phage variant recovered from brain” value (brain [6]; 4 hours after injection of 20-variant mixture) was 7.5%.
